This note sets out measurements from patent publication US9326511B2, “Methods of inhibiting microbial biofilms” (priority 2008, dated 2016).

Data set [1] can be described thus: Chemical stability, qualitative stress tests (HPLC, LC-MS). Type of data set: physicochemical. The note with it: solid, aqueous solution, PBS, 7 days each at 50, 70 and 90° C. Here is the method: The following HPLC methodology was established for the analysis of the exemplary compounds of the invention.
The method involves detection by UV at a wavelength of 420 nm, which is very specific for these compounds. In order to monitor impurities not related to the porphyrin structure (and therefore not absorbing at 420 nm) UV spectra of the whole chromatograms were also recorded between 200 nm and 700 nm by DAD (diode array detector) in certain experiments. • Column: Zorbax Phenyl, 250×4.6 mm, 5 µm • Eluent A: 1.5 g sodium dodecylsulfate+1 mL formic acid in 1000 mL water • Eluent B: 1.5 g sodium dodecylsulfate+1 mL formic acid in 200 mL water+800 mL tetrahydrofurane • Gradient:
• Flow rate: 0.4 mL/min • Detection: 420 nm • Column temperature: 25° C. • Injection volume: 10 μl • Solutions: Porphyrin derivatives were dissolved in eluent A to give a final concentration of approximately 0.3 mg/ml.
Qualitative stress tests were undertaken on the exemplary compounds of the invention. Analysis was undertaken by HPLC & LC-MS. The compounds were stress tested in solid form, in an aqueous solution and a solution made up in phosphate-buffered saline buffer. The samples were initially incubated for 7 days at 50° C. and a sample removed for testing. The samples were then incubated for a further 7 days at 70° C., samples removed as before and the samples incubated further for 7 days at 90° C. HPLC analysis of freshly prepared solutions was undertaken and compared to the samples after 7, 14 and 21 days incubation. A visual comparison of the chromatograms was then undertaken and the content of the main products and by-products as area percentage values determined (see FIG. 4).

In data set [2] the test system is E. coli cells. As to the kind of experiment: Binding of compounds with bacterial cells (spectrofluorimetric analysis of cell lysates). As to conditions: 5 min incubation. Here is the method: […] At the end of the incubation period, the cells were sedimented by centrifugation to remove the fraction of unbound test compound and the cell pellet was resuspended in 2 ml of 2% SDS to obtain cell lysates. After overnight incubation with SDS, the amount of cell-bound test compound was estimated by spectrofluorimetric analysis of the cell lysates. The concentration of the compounds in the cell lysates was calculated by measuring the intensities at the maximum of the emission fluorescence spectrum and interpolating the data on a calibration plot. The amount of cell-bound test compound was expressed as nmoles of compound per mg of cell protein. The protein concentration was determined by the method of Lowry (Lowry et al., 1951, J. Biol. Chem. 193:265-275).
All experiments were run in triplicate and the results represent the average of 3 determinations with standard deviations.

The subject of data set [3] is stringent S. aureus SH1000 cultures. As to the kind of experiment: Time-kill against cultures expressing the stringent response (induced with mupirocin). Type of data set: cell-based, Staphylococcus aureus. As to conditions: for viability / bactericidal activity in time-kill (in words): stringent response induced with mupirocin, agents at 4×MIC. How it is done:
(§1) Methods: MICs were determined for planktonic cultures by broth microdilution according to British Society for Antimicrobial Chemotherapy (BSAC) guidelines. Biofilm MICs (bMIC) and minimum biofilm eradication concentrations (MBECs) were determined using the Calgary biofilm device. The effect of Compound 10 on the viability of cold culture cells was determined by growing S. aureus SH1000 to early exponential phase at 37° C. and resuspending the cells in pre-chilled media, where they were maintained in the presence and absence of Compound 10 and control agents. The effect of Compound 10 on slow growing cells expressing the stringent response was also determined by growing cultures to early log phase and the stringent response induced by the addition of the isoleucyl-tRNA synthetase inhibitor mupirocin. Compound 10 and control agents were then added and samples recovered for viable cell determinations.
When nutrients become limiting for growth bacteria adjust their metabolism from one that supports growth to one that provides for long survival in the absence of nutrients. In many bacteria a key facilitator of this physiological switch, known as the stringent response, is accumulation of guanosine […] and pentaphosphate (Traxler et al., 2008). The antibiotic mupirocin is a strong inducer of the stringent response in S. aureus and effectively causes starvation of charged isoleucyl tRNA by potent inhibition of isoleucy ItRNA synthetase (IRS) (Oliva et al., 2003). The activity of XF drugs against S. aureus SH1000 prevented from growing by the addition of mupirocin (Oliva et al., 2003), was therefore examined (FIG. 10). As an alternative method for arresting growth, bacteria were suspended in cold growth medium (Mascio et al., 2007) and the bactericidal activity of XF drugs was also determined under these conditions (FIG. 11).
(§2) The anti-staphylococcal activities of Compound 10, Compound 12 and a range of comparator agents against slow-growing cultures of Staphylococcus aureus were studied using standard time-kill methodology (Oliva et al. 2003, Hobbs et al. 2008). Staphylococcus aureus SH1000 cultures were grown to early exponential phase (OD600 nm of 0.2) in Mueller-Hinton broth (MHB) before being exposed to antibacterial agents at 4×MIC. An untreated culture served as the negative control. The experiments were undertaken in triplicate.
The antibiotic mupirocin is a strong inducer of the stringent response in S. aureus and causes starvation of charged isoleucyl tRNA by potent inhibition of isoleucyl tRNA synthetase (IRS) (Oliva et al. 2003, Cassels et al. 1995) Stringency was induced in SH1000 cultures by adding mupirocin (4 mg/L) to cells in the early exponential growth phase (OD600 nm of 0.2) (Oliva et al. 2003, Cassels et al. 1995). Cultures were incubated with mupirocin for 30 minutes before sampling began. Cultures were maintained at 37° C., and samples were taken at 30 minute intervals for 300 minutes, serially diluted in phosphate buffered saline (PBS) and diluted culture was spread on Mueller-Hinton agar and was incubated at 37° C. for 18-24 hours before the number of CFU were counted.

The subject of data set [4] is S. aureus SH1000 cold cultures. As to the kind of experiment: Time-kill against cold cultures (4° C.). Type of data set: cell-based, Staphylococcus aureus. As to conditions: for viability / bactericidal activity in time-kill (in words): cold culture held at 4° C. for 5 hours, agents at 4×MIC. How it is done:
as §1
The effect of XF drugs on the viability of cold culture cells was determined by growing S. aureus SH1000 to early exponential phase at 37° C., harvesting the cells by centrifugation (5,000×g, 10 min.) and resuspending them in pre-chilled media where they were maintained in the presence and absence of XF drugs and control agents for 5 hours. […] (FIG. 11).
as §2
Cold cultures were prepared by growing SH1000 cells to early exponential phase (OD600 nm of 0.2) at 37° C. Cultures were then centrifuged and the cell pellet was resuspended in MHB pre-chilled to 4° C. The killing kinetics of antimicrobial agents were studied as described in the section above, with the exception that cultures were maintained at 4° C. over the 5 hour sampling period.

Regarding `C[N+](C)(C)CCCOc1ccc(-c2c3nc(cc4ccc([nH]4)c(-c4ccc(OCCC[N+](C)(C)C)cc4)c4nc(cc5ccc2[nH]5)C=C4)C=C3)cc1.[Cl-].[Cl-]` [Compound 10, 5,15-bis-[4-(3-Trimethylammonio-propyloxy)-phenyl]-porphyrin dichloride], the “Chemical stability under stress” value in data set [1] is reported as “good stability”. For the same compound, the Bound compound in data set [2] (0.01 μM compound, 0 washings) is 0.026 ± 0.005 nmoles/mg cell proteins; in data set [2] (0.01 μM compound, 3 washings), 0.015 ± 0.0004 nmoles/mg cell proteins; in data set [2] (0.1 μM compound, 0 washings), 0.274 ± 0.05 nmoles/mg cell proteins; in data set [2] (0.1 μM compound, 3 washings), 0.078 ± 0.02 nmoles/mg cell proteins; in data set [2] (0.5 μM compound, 0 washings), 1.542 ± 0.350 nmoles/mg cell proteins; in data set [2] (0.5 μM compound, 3 washings), 0.334 ± 0.092 nmoles/mg cell proteins. Besides, the Bound compound in data set [2] (1 μM compound, 0 washings) came out at 2.70 ± 0.354 nmoles/mg cell proteins; in data set [2] (1 μM compound, 3 washings), 1.278 ± 0.102 nmoles/mg cell proteins. The drop in viability in data set [3] (stringent response cultures, 4×MIC, within 1 hour) is listed as 5 log; in data set [4] (cold culture (4° C.), 4×MIC, within 1 hour), 5 log. Moreover, the “viability / bactericidal activity in time-kill (in words)” value in data set [3] and in data set [4] was “retained potent bactericidal activity” in each case.
For the compound `C[N+](C)(C)CCCOc1cccc(-c2c3nc(cc4ccc([nH]4)c(-c4cccc(OCCC[N+](C)(C)C)c4)c4nc(cc5ccc2[nH]5)C=C4)C=C3)c1.[Cl-].[Cl-]` [Compound 12, 5,15-bis-[3-(3-Trimethylammonio-propyloxy)-phenyl]-porphyrin dichloride], the “Chemical stability under stress” value in data set [1] was “good stability”. Moreover, the Bound compound in data set [2] (0.01 μM compound, 0 washings) turned out to be 0.041 ± 0.02 nmoles/mg cell proteins; in data set [2] (0.01 μM compound, 3 washings) it was 0.021 ± 0.005 nmoles/mg cell proteins; in data set [2] (0.1 μM compound, 0 washings), 0.151 ± 0.02 nmoles/mg cell proteins; in data set [2] (0.1 μM compound, 3 washings), 0.089 ± 0.02 nmoles/mg cell proteins; in data set [2] (0.5 μM compound, 0 washings) it was 0.806 ± 0.14 nmoles/mg cell proteins; in data set [2] (0.5 μM compound, 3 washings), 0.622 ± 0.10 nmoles/mg cell proteins. The Bound compound in data set [2] (1 μM compound, 0 washings) amounted to 2.70 ± 0.30 nmoles/mg cell proteins; in data set [2] (1 μM compound, 3 washings), 1.930 ± 0.20 nmoles/mg cell proteins. The “viability / bactericidal activity in time-kill (in words)” value in data set [3] and in data set [4] was “retained potent bactericidal activity” throughout.
